# Reference: US20090088411A1, “No-donating corticosteroid with improved pharmacokinetic, anti-inflammatory and vasodilatory properties” (Topigen Pharmaceuticals Inc., priority 2007, published 2009)
# What was measured:
# [1] = set-up: species or system humans; settings: human, in vivo
# From the text: (§1) A clinical study was undertaken in humans to test certain aspects of a preferred NO-donating budesonide derivative, TPI-1020, as compared to the corticosteroid, budesonide which was not modified with a NO-donating moiety. Specifically, the objectives of this study were to determine the safety, pharmacodynamic and pharmacokinetic activity of multiple doses of inhaled NO-donating budesonide derivatives compared to that of equimolar doses of inhaled budesonide in subjects with mild asthma who smoke. We chose patients with asthma who smoke since these patients had reported to have not only an increase in eNO but also an increase in neutrophils within their sputum (as described in COPD). While assessing the safety of these compounds in such patients we could thus explore the effects of the same in patients with increased sputum neutrophils.
# (§2) Those subjects who completed the 14-day run-in period were assigned to receive either an inhaled version of a compound of the present invention (in this case, budesonide 21-(4′-nitrooxymethyl)benzoate, designated hereafter as “TPI-1020”) or budesonide over a 21-day period. The doses administered were based on equimolar amounts of budesonide and were as follows: budesonide 400 μg bid for 14 days then 800 μg bid for 7 days; TPI-1020: 600 μg bid for 14 days then 1200 μg bid for 7 days. Study treatments were delivered in lactose-based blends using the capsule-based Aeroliser dry powder inhaler. Budesonide capsules (Miflonide®, Novartis Pharmaceuticals) delivered 383 μg as compared to 423 μg of budesonide for TPI-1020 (equivalent to 9.5% more budesonide delivered to the body in the TPI-1020 group). However, the fine particle dose of budesonide was 104 μg for the budesonide capsules and only 78 μg for the TPI-1020 capsules (equivalent to 25% less budesonide delivered to the lung in the TPI-1020 group). No other asthma medication except rescue salbutamol was permitted during the study.
# The total number of adverse events reported by patients receiving budesonide and TPI-1020 is graphically depicted in FIG. 1. More specifically, FIG. 1 depicts the total number of either treatment-related or physician-determined adverse events for each drug during the 21 day therapeutic period.
# [2] = Supine and standing blood pressure (vital signs), clinical study; format: in vivo, humans; settings: after 22 days; p=0.015 between groups
# Experimental: as §2
# FEV1 spirometry = format: in vivo, humans; settings: mean (SD)
# Experimental: (§3) Although this study was only powered for neutrophils, the following parameters were also evaluated: sputum total cell and differential cell counts, using known methods, on days 0, 15 and day 22; pre-dose FEV1 measurements on days 0, 1, 14, 15 and 22; peak flow measurements throughout the study (miniwright meter); use of daily rescue medication (salbutamol) throughout the study; the response to methacholine challenge test; and the eNO levels (chemiluminescence after reaction with ozone) on days 0, 15 and 22 and plasma CRP levels on days 0, 15 and 22.
# as §2
# [3] = Peak flow measurements (PEF, miniwright meter); format: in vivo, humans; settings: mean (SD)
# Experimental: as §3, §2
# sputum neutrophils = assay: Sputum differential cell count: neutrophils; format: in vivo, humans; settings: for median sputum neutrophils: all patients
# From the text: as §1, §3, §2
# The sample size was chosen to provide information about the primary study objective (safety) and with the power to detect a 20% difference in the decrease in sputum neutrophils with TPI-1020, versus that occurring with budesonide. There are no published studies in mild smokers with asthma that have described the variability in sputum neutrophils. However, based on the COPD publication by Gamble et al., almost all patients with COPD have increased sputum neutrophils (>20%). We calculated that if 13 subjects per group completed the study, a difference of 20% in neutrophils (%) between groups could be detected with a power of 80%.
# sputum eosinophils = assay: Sputum differential cell count: eosinophils; format: in vivo, humans; settings: mean (SD)
# Experimental: as §3, §2
# [4] = Use of daily rescue medication (salbutamol); format: in vivo, humans; settings: mean (SD)
# Experimental: as §3, §2
# [5] = Methacholine challenge test (PC20); format: in vivo, humans; settings: mean (SD)
# Experimental: as §3, §2
# [6] = Asthma control scoring system questionnaire (ACSS); format: in vivo, humans; settings: mean (SD)
# Experimental: as §2
# [7] = tested on: exhaled nitric oxide (eNO); assay: Exhaled NO levels (chemiluminescence); format: in vivo, humans; settings: for eNO (ppb): mean (SD)
# Experimental: as §3, §2
# blood eosinophils = assay: Blood eosinophils; format: in vivo, humans; settings: mean (SD)
# Experimental: as §2
# blood lymphocytes = assay: Blood lymphocytes; format: in vivo, humans; settings: mean (SD)
# Experimental: as §2
# C-reactive protein (CRP) = assay: Plasma CRP levels; format: in vivo, humans; settings: for CRP (mg/L): mean (SD)
# Experimental: as §3, §2
# [8] = tested on: HPA (hypothalamic-pituitary-adrenal) axis; assay: Morning plasma cortisol level
# From the text: (§4) This undesirable HPA axis suppression is typically measured by a reduction in urinary cortisol excretion.
# (§5) Safety parameters consisted of adverse events and serious adverse events, vital signs, asthma symptoms, laboratory determinations of CBC, urinalysis, regular blood biochemistry, plasma C-reactive protein (CRP), plasma and urinary free cortisol levels, spirometry and electrocardiograms (ECGs).
# [9] = tested on: HPA (hypothalamic-pituitary-adrenal) axis; assay: 24-hour urinary free cortisol; settings: vs baseline
# From the text: as §4, §5
smiles,measurement,setting,value
"CCCC1O[C@@H]2C[C@H]3[C@@H]4CCC5=CC(=O)C=C[C@]5(C)[C@H]4[C@@H](O)C[C@]3(C)[C@]2(C(=O)CO)O1 (some centres unmarked) [budesonide, reference compound]",severe adverse events,[1],one
same,drug-related adverse events,[1]; 21 days,9
same,number of subjects that reported adverse events,[1]; 21 days,7
same,total treatment-emergent adverse events,[1]; 21 days,39
same,change in standing pulse pressure,[2],+4.85 mmHg
same,"FEV1 (ITT, L)",FEV1 spirometry; Baseline,3.3 (0.8) L
same,"FEV1 (PD, L)",FEV1 spirometry; Baseline,3.2 (0.7) L
same,"FEV1 (PD, L)",FEV1 spirometry; Day 1,3.1 (0.6) L
same,"FEV1 (PD, L)",FEV1 spirometry; Day 14,3.3 (0.7) L
same,"FEV1 (PD, L)",FEV1 spirometry; Day 15,3.3 (0.7) L
same,"FEV1 (ITT, L)",FEV1 spirometry; Day 22,3.3 (0.8) L
same,"FEV1 (PD, L)",FEV1 spirometry; Day 22,3.3 (0.7) L
same,"PEF (AM, L/min)",[3]; Baseline,405.5 (91) L/min
same,"PEF (AM, L/min)",[3]; Day 22,423.4 (89.5) L/min
same,mean sputum neutrophils,"sputum neutrophils; after 22 days, post hoc, patients with baseline sputum neutrophils <20% (normal)",3.95%
same,mean sputum neutrophils,"sputum neutrophils; after 22 days, post hoc, patients with baseline sputum neutrophils >20%",51.9%
same,mean sputum neutrophils,"sputum neutrophils; baseline, post hoc, patients with baseline sputum neutrophils <20% (normal)",4.25%
same,mean sputum neutrophils,"sputum neutrophils; baseline, post hoc, patients with baseline sputum neutrophils >20%",55.1%
same,median sputum neutrophils,sputum neutrophils; day 0 prior to therapy,39.6%
same,increase in median sputum neutrophils,"sputum neutrophils; day 0 to day 22, all patients",3.7%
same,median sputum neutrophils,sputum neutrophils; day 22 (end of therapy),41.1%
same,decrease in mean sputum neutrophils,"sputum neutrophils; over 22 days, post hoc, patients with baseline sputum neutrophils >20%",5.8%
same,Sputum eos (%),sputum eosinophils; Baseline,2.4 (3.3) %
same,Sputum eos (%),sputum eosinophils; Day 22,1.0 (1.0) %
same,Doses of Rescue Rx,[4]; Baseline,17 (15)
same,Rescue free days (%),[4]; Baseline,40.9 (41) %
same,Doses of Rescue Rx,[4]; Day 22,3.5 (4)
same,Rescue free days (%),[4]; Day 22,68.4 (32) %
same,PC20 (mg/ml),[5]; Baseline,1.4 (1.3) mg/ml
same,PC20 (mg/ml),[5]; Day 22,2.0 (1.6) mg/ml
same,ACSS,[6]; Baseline,73.1 (14)
same,ACSS,[6]; Day 22,82.4 (8.4)
same,eNO (ppb),[7]; Baseline,19 (17.6) ppb
same,eNO (ppb),[7]; Day 22,9.8 (7.6) ppb
same,decrease in eNO,"[7]; equimolar doses, baseline to day 22",9.2 ppb
same,Blood eos (%),blood eosinophils; Baseline,2.3 (2.3) %
same,Blood eos (%),blood eosinophils; Day 22,2.1 (1.6) %
same,Blood lymphocytes (%),blood lymphocytes; Baseline,14.9 (13) %
same,Blood lymphocytes (%),blood lymphocytes; Day 22,22.5 (15.8) %
same,patients in whom CRP decreased,C-reactive protein (CRP); 22 days of therapy compared to baseline,33.2%
same,CRP (mg/L),C-reactive protein (CRP); Baseline,2.7 (4.3) mg/L
same,CRP (mg/L),C-reactive protein (CRP); Day 22,2.5 (1.4) mg/L
same,increase in plasma CRP,"C-reactive protein (CRP); day 15 versus baseline, p=0.03 between groups",0.7 mg/L
same,morning plasma cortisol level,[8]; baseline,13.1 µg/dL
same,morning plasma cortisol level,[8]; day 15,10.9 µg/dL
same,morning plasma cortisol level,[8]; day 22,11.4 µg/dL
same,effect on 24-hour urinary free cortisol,[9],significantly decreased
